Square brackets hold non-standard residues; d marks the D form. Ends that are not written are not given here. Peptide text beside a SMILES is read from it. Cit = NC(=O)NCCC[C@H](N)C(=O)O
What was measured:
Experiment in all cases: HLA class II peptide binding, inhibition of radiolabeled peptide binding to purified MHC; as to IC50 DRB1*01:01: competition with radiolabeled peptide (0.1–1 nM); as to IC50 DRB1*04:01: competition with radiolabeled peptide (0.1–1 nM)
DRB1*04:02 = DRB1*04:02 (Homo sapiens, UniProt P01903+P01911, A100E/A169T/F76Y/K127E/L162R/M171V/N62H/P40V/Q125Y/Q99D/R42H/S133A/S149N/S66Y/V209L/W38E); details: SE-, competition with radiolabeled peptide, two-day incubation, three or more independent experiments
DRB1*04:04 = DRB1*04:04 (Homo sapiens, UniProt P01903+P01911, A100R/A169T/F76Y/I96L/K127E/L162R/M171V/N62H/P40V/Q125Y/R42H/S133A/S149N/S66Y/V209L/W38E); details: SE+, competition with radiolabeled peptide, two-day incubation, three or more independent experiments
DRB1*12:01 = DRB1*12:01 (Homo sapiens, UniProt P01903+P01911, A100R/A169T/D57E/D86V/F55L/H45Y/K41T/L162R/M171V/P40S/Q125H/Q178H/Q39Y/Q99D/R42G/S66L/T262R/V114A/V67L/W38E/Y59H/Y61H/Y89S); details: SE-, competition with radiolabeled peptide, two-day incubation, three or more independent experiments
DRB1*13:02 = DRB1*13:02 (Homo sapiens, UniProt P01903+P01911, A100E/A169T/K41T/L162R/M171V/P40S/Q125H/Q178H/Q39Y/Q99D/R42S/S66N/T262R/V115G/W38E/Y61H); details: SE-, competition with radiolabeled peptide, two-day incubation, three or more independent experiments
DRB1*03:01 = DRB1*03:01 (Homo sapiens, UniProt P01903+P01911, A100K/A102G/A103R/A169T/F55Y/I96L/K41T/L162R/M171V/P40S/Q125H/Q178H/Q39Y/R42S/S66N/T106N/T262R/W38E/Y61H); details: Other DR, competition with radiolabeled peptide, two-day incubation, three or more independent experiments
DRB1*04:05 = DRB1*04:05 (Homo sapiens, UniProt P01903+P01911, A100R/A169T/D86S/F76Y/I96L/K127E/L162R/M171V/N62H/P40V/Q125Y/R42H/S133A/S149N/S66Y/V115G/V209L/W38E); details: SE+, competition with radiolabeled peptide, two-day incubation, three or more independent experiments
DRB1*15:01 = target: T1, DRB1*15:01 (Homo sapiens, UniProt P01903+P01911); details: SE-, competition with radiolabeled peptide, two-day incubation, three or more independent experiments
T1 construct: EBV transformed homozygous cell lines were used as sources of MHC molecules; endogenous in cells; host or cells: EBV transformed homozygous cell lines

DQB1*03:01 = DQB1*03:01 (Homo sapiens, UniProt P01909+P01920); details: DQ, competition with radiolabeled peptide, two-day incubation, three or more independent experiments
DQB1*03:01, sequence (P01920 33-261, other chains not shown): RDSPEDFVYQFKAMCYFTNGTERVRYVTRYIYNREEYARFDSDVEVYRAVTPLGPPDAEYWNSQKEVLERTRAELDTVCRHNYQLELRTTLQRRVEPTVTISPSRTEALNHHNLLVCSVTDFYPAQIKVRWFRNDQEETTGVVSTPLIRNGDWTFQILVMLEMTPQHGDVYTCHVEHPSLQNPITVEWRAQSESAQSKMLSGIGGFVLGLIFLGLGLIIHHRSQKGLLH
DRB4*01:01 = target: T2, DRB4*01:01 (Homo sapiens, UniProt P01903+P13762, G164S); details: Other DR, competition with radiolabeled peptide, two-day incubation, three or more independent experiments
T2 construct: EBV transformed homozygous cell lines were used as sources of MHC molecules; endogenous in cells; host or cells: EBV transformed homozygous cell lines

HLA-DRB1*01:01 = target: T3, HLA-DRB1*01:01 (Homo sapiens, UniProt P01903+P01911, A100R/D57E/F55L/F60I/F76Y/I96L/L162R/M171V/P40L/Q125E/R42F/V115G/Y59C); details: read-out: IC50 DRB1*01:01; also: competition with radiolabeled peptide (0.1–1 nM)
T3 construct: EBV transformed homozygous cell lines were used as sources of MHC molecules; endogenous in cells; host or cells: EBV transformed homozygous cell lines

DRB1*11:01 = DRB1*11:01 (Homo sapiens, UniProt P01903+P01911, A100R/A169T/A87E/I96F/K41T/L162R/M171V/P40S/Q125H/Q178H/Q39Y/Q99D/R42S/S66Y/T262R/V115G/W38E); details: SE-, competition with radiolabeled peptide, two-day incubation, three or more independent experiments
DPB1*04:01 = target: T4, DPB1*04:01 (Homo sapiens, UniProt P04440+P20036); details: DP; purified MHC, competition with radiolabeled peptide, two-day incubation, three or more independent experiments
T4 construct: EBV transformed homozygous cell lines were used as sources of MHC molecules; endogenous in cells; host or cells: EBV transformed homozygous cell lines
T4 sequence (P04440 30-258): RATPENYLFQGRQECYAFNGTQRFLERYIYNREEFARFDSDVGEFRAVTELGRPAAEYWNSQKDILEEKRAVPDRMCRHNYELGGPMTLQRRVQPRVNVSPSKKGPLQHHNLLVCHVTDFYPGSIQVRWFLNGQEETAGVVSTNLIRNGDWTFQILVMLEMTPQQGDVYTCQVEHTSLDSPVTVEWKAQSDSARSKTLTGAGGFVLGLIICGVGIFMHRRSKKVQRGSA
T4 sequence (P20036 29-260 partner): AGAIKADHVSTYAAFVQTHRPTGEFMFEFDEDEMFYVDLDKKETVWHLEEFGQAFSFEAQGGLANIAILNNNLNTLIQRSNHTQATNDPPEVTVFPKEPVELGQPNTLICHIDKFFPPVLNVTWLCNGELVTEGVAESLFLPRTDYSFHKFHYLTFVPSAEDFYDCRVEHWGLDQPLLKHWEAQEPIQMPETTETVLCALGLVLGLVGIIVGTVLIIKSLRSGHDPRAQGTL

DRB1*07:01 = DRB1*07:01 (Homo sapiens, UniProt P01903+P01911, A100R/A102G/A103Q/D57E/D86V/E43K/F76Y/K127E/L162R/M171V/P40G/Q125H/Q99D/R33Q/R42Y/R54Q/S133A/S66F/T210M/V115G/Y107V/Y59L/Y89S); details: Other DR, competition with radiolabeled peptide, two-day incubation, three or more independent experiments
DRB1*10:01 = DRB1*10:01 (Homo sapiens, UniProt P01903+P01911, A100R/A169T/D57E/F55L/F60V/F69Y/F76Y/I96L/L162R/M171V/P40V/Q260P/Q39E/Q99R/R195Q/R42F/S149N/S66Y/T210M/V115G/V67A/W38E/Y59R/Y61H); details: SE+, competition with radiolabeled peptide, two-day incubation, three or more independent experiments
DRB1*09:01 = DRB1*09:01 (Homo sapiens, UniProt P01903+P01911, A100R/A103E/D57H/D86V/F55Y/F60I/F76Y/I96F/K127E/L162R/M171V/P40D/Q125H/Q99R/R33Q/R42F/S133A/S66N/T210M/V115G/W38K/Y107V/Y59G/Y89S); details: Other DR, competition with radiolabeled peptide, two-day incubation, three or more independent experiments
DRB3*01:01 = target: T5, DRB3*01:01 (Homo sapiens, UniProt P01903+P79483); details: Other DR, competition with radiolabeled peptide, two-day incubation, three or more independent experiments
T5 construct: EBV transformed homozygous cell lines were used as sources of MHC molecules; endogenous in cells; host or cells: EBV transformed homozygous cell lines

DRB5*01:01 = target: T6, DRB5*01:01 (Homo sapiens, UniProt P01903+Q30154); details: Other DR, competition with radiolabeled peptide, two-day incubation, three or more independent experiments
T6 construct: EBV transformed homozygous cell lines were used as sources of MHC molecules; endogenous in cells; host or cells: EBV transformed homozygous cell lines

DRB3*02:02 = DRB3*02:02 (Homo sapiens, UniProt P01903+P79483, A212P/D57E/F66Y/L67A/R103Q/R218S/R40L/S89Y/T80R/V86D/Y55F/Y59H); details: Other DR, competition with radiolabeled peptide, two-day incubation, three or more independent experiments
HLA-DRB1*04:01 = target: T7, HLA-DRB1*04:01 (Homo sapiens, UniProt P01903+P01911, A100K/A169T/F76Y/I96L/K127E/L162R/M171V/N62H/P40V/Q125Y/R42H/S133A/S149N/S66Y/V115G/V209L/W38E); details: read-out: IC50 DRB1*04:01; also: competition with radiolabeled peptide (0.1–1 nM)
T7 construct: EBV transformed homozygous cell lines were used as sources of MHC molecules; endogenous in cells; host or cells: EBV transformed homozygous cell lines

DRB1*16:02 = DRB1*16:02 (Homo sapiens, UniProt P01903+P01911, A100R/F76Y/I96L/Q99D/V115G); details: SE-, competition with radiolabeled peptide, two-day incubation, three or more independent experiments
DRB1*08:02 = DRB1*08:02 (Homo sapiens, UniProt P01903+P01911, A100R/A103L/A169T/F76Y/H45Y/I96F/K41T/L162R/M171V/P40S/Q125H/Q178H/Q39Y/Q99D/R218S/R42G/S66Y/V115G/W38E); details: Other DR, competition with radiolabeled peptide, two-day incubation, three or more independent experiments

Row | Compound | IC50 (DRB1*04:02) [µM] | IC50 (DRB1*04:04) [µM] | IC50 (DRB1*12:01) [µM] | IC50 (DRB1*13:02) [µM] | IC50 (DRB1*03:01) [µM] | IC50 (DRB1*04:05) [µM] | IC50 (DRB1*15:01) [µM] | IC50 (DQB1*03:01) [µM] | IC50 (DRB4*01:01) [µM] | IC50 (HLA-DRB1*01:01) [µM] | IC50 (DRB1*11:01) [µM] | IC50 (DPB1*04:01) [µM] | IC50 (DRB1*07:01) [µM] | IC50 (DRB1*10:01) [µM] | IC50 (DRB1*09:01) [µM] | IC50 (DRB3*01:01) [µM] | IC50 (DRB5*01:01) [µM] | IC50 (DRB3*02:02) [µM] | IC50 (HLA-DRB1*04:01) [µM] | IC50 (DRB1*16:02) [µM] | also measured
1 | CC[C@H](C)[C@H](NC(=O)[C@H](CCCNC(N)=O)NC(=O)[C@H](CC(N)=O)NC(=O)[C@@H](NC(=O)[C@H](Cc1ccccc1)NC(=O)[C@H](CC(=O)O)NC(=O)[C@H](CCC(N)=O)NC(=O)[C@@H](N)CC(N)=O)[C@@H](C)O)C(=O)N[C@@H](CC(N)=O)C(=O)N[C@@H](CCCCN)C(=O)N[C@@H](CC(C)C)C(=O)N[C@@H](CCCCN)C(=O)N[C@@H](CC(N)=O)C(=O)N[C@@H](CO)C(=O)O [Fibrinogen 78–91 Cit] (H-NQDFTN[Cit]INKLKNS-OH) | > 30 | 2.32 | 9.38 | > 30 | > 30 | 11.3 | > 30 | > 30 | 12.7 | 15.7 | > 30 | > 30 | > 30 | 8.48 | > 30 | > 30 | 0.0092 | > 30 | 12.9 | 15.3 | IC50 (DRB1*08:02): 35.7 µM
2 | LQYMRADQAAGGLR [Collagen II 1236–1249 WT] | 0.118 | 0.102 | > 30 | 3.92 | 0.159 | 1.77 | 1.46 | 12.8 | 0.08 | 0.081 | 9.86 | > 30 | 29.6 | 0.375 | 0.315 | 0.068 | 8.88 | 0.262 | 0.0097 | 23.1 | IC50 (DRB1*08:02): 1.04 µM
3 | CC(C)C[C@H](NC(=O)[C@H](CC(C)C)NC(=O)[C@@H](NC(=O)[C@@H](N)C(C)C)C(C)C)C(=O)N[C@H](C(=O)N[C@@H](C)C(=O)N[C@H](C(=O)N[C@@H](CCC(=O)O)C(=O)NCC(=O)N[C@@H](CCCNC(N)=O)C(=O)N[C@H](C(=O)N[C@@H](CCCNC(=N)N)C(=O)N[C@H](C(=O)N[C@@H](CC(N)=O)C(=O)N[C@@H](CO)C(=O)N[C@@H](C)C(=O)N[C@@H](Cc1ccc(O)cc1)C(=O)N[C@@H](CCC(N)=O)C(=O)N[C@@H](CC(=O)O)C(=O)N[C@@H](CCCCN)C(=O)O)C(C)C)C(C)C)[C@@H](C)O)C(C)C [Aggrecan 84–103 Cit] (H-VVLLVATEG[Cit]VRVNSAYQDK-OH) | 4.26 | 0.854 | 11 | 0.552 | 11.1 | 0.047 | 7.6 | 0.382 | 2.34 | 3.86 | 29.7 | 16.2 | 8.47 | 2.42 | 28.5 | 18.9 | 0.74 | 0.051 | 0.827 | 22.8 | IC50 (DRB1*08:02): 17 µM
4 | CC(C)C[C@H](NC(=O)[C@H](CCCNC(=N)N)NC(=O)[C@@H](NC(=O)[C@H](C)NC(=O)[C@@H](N)CO)C(C)C)C(=O)N[C@@H](CCCNC(N)=O)C(=O)N[C@@H](CO)C(=O)N[C@@H](CO)C(=O)N[C@H](C(=O)N1CCC[C@H]1C(=O)NCC(=O)N[C@H](C(=O)N[C@@H](CCCNC(=N)N)C(=O)O)C(C)C)C(C)C [Vimentin 66–78 Cit] (H-SAVRL[Cit]SSVPGVR-OH) | 0.014 | 0.009 | 2.22 | 15 | 25.9 | 0.054 | 0.0054 | 2.01 | 0.004 | 0.0095 | 8.92 | > 30 | 7.31 | 0.035 | 0.353 | > 30 | 1.36 | > 30 | 0.0018 | 0.118 | IC50 (DRB1*08:02): 0.275 µM
